Experimental data from patent US20230091047A1 (priority 2019, published 2023).
Where two headings read alike, the source gives them in different places.

Assays:
in vitro = format: cell-based; conditions: human, HepG2 or HepG2.117 cells, ATPlite, mean value; for CC50 at 4 days: 4-days incubation (values marked with *)
Description: Cytotoxicity of the compounds was tested using HepG2 or HepG2.117 cells, incubated for 3 or 4 days in the presence of compounds. The viability of the cells was assessed using the PERKIN ELMER ATPlite Luminescence Assay System.”

[1] = test system: HBV (HepG2.117 cell line, inducibly HBV producing); experiment: Anti-HBV activity: intracellular HBV DNA by real-time PCR in HepG2.117 cells after 3 days of treatment; format: cell-based, hepatitis B virus
Description: The anti HBV activity was measured using the HepG2.117 cell line, a stable, inducibly HBV producing cell line, which replicates HBV in the absence of doxycycline (Tet-off system). The HepG2 cell line is available from ATCCR under number HB-8065. Transfection of the HepG2 cell line can be as described in Sun and Nassal 2006 Journal of Hepatology 45 (2006) 636-645 “Stable HepG2- and Huh7-based human hepatoma cell lines for efficient regulated expression of infectious hepatitis B virus”.
For the antiviral assay, HBV replication was induced, followed by a treatment with serially diluted compound in 96-well plates. After 3 days of treatment, the antiviral activity was determined by quantification of intracellular HBV DNA using real-time PCR and an HBV specific primer set and probe.

[2] = 3-days incubation (unmarked values)
[3] = Hepatitis B virus, HepG2.117, 72 h, HepG2.117 cells, 3 days of treatment, intracellular HBV DNA by real-time PCR; mean value; read-out: EC50 (μM, mean value)
[4] = 3-days incubation (not marked with *)
[5] = Hepatitis B virus, HepG2.117, 72 h, HepG2.117 cells, intracellular HBV DNA by real-time PCR, 3 days of treatment, mean value; read-out: EC50 (μM, mean value)

CNC(=O)c1ccc(-n2c(N[C@@H](C)CCO)nc3c(c2=O)C[C@@H](C)N(C(=O)c2ccc(Cl)c(Cl)c2)C3)cc1 [Compound C276, 4-[(6R)-7-(3,4-dichlorobenzoyl)-2-{[(2S)-4-hydroxybutan-2-yl]amino}-6-methyl-4-oxo-5,6,7,8-tetrahydropyrido[3,4-d]pyrimidin-3(4H)-yl]-N-methylbenzamide]
CC50 at 3 days (in vitro; [2]): > 50 µM
EC50 [1, 3]: 1.68 µM

COc1ccc(CNc2nc3c(c(=O)n2C2CCCN(S(C)(=O)=O)C2)CCN(C(=O)c2ccc(Cl)c(Cl)c2)C3)cc1 (centres unmarked) [Compound C83, 7-(3,4-dichlorobenzoyl)-3-[1-(methanesulfonyl)piperidin-3-yl]-2-{[(4-methoxyphenyl)methyl]amino}-5,6,7,8-tetrahydropyrido[3,4-d]pyrimidin-4(3H)-one]
CC50 at 3 days (in vitro; [2]): > 50 µM
EC50 [1, 3]: 1.44 µM

CC(C)Nc1nc2c(c(=O)n1-c1ccc3c(c1)CNC3=O)C[C@@H](C)N(C(=O)c1ccc(Cl)c(Cl)c1)C2 [Compound C231, (6R)-7-(3,4-dichlorobenzoyl)-6-methyl-3-(1-oxo-2,3-dihydro-1H-isoindol-5-yl)-2-[(propan-2-yl)amino]-5,6,7,8-tetrahydropyrido[3,4-d]pyrimidin-4(3H)-one]
CC50 at 3 days (in vitro; [2]): > 50 µM
EC50 [1, 3]: 0.15 µM

COc1ccccc1-n1c(NCc2cccnc2)nc2c(c1=O)CCN(C(=O)c1ccc(Cl)c(Cl)c1)C2 [Compound C9, 7-(3,4-dichlorobenzoyl)-3-(2-methoxyphenyl)-2-{[(pyridin-3-yl)methyl]amino}-5,6,7,8-tetrahydropyrido[3,4-d]pyrimidin-4(3H)-one]
CC50 at 4 days (in vitro): > 50 µM
EC50 [1, 3]: 11.6 µM

CC(C)Nc1nc2c(c(=O)n1-c1ccc(N3CC(=O)N(C)C3)cc1)C[C@@H](C)N(C(=O)c1ccc(Cl)c(Cl)c1)C2 [Compound C202, (6R)-7-(3,4-dichlorobenzoyl)-6-methyl-3-[4-(3-methyl-4-oxoimidazolidin-1-yl)phenyl]-2-[(propan-2-yl)amino]-5,6,7,8-tetrahydropyrido[3,4-d]pyrimidin-4(3H)-one]
CC50 at 3 days (in vitro; [2]): > 50 µM
EC50 [1, 3]: 0.19 µM

CC(C)Nc1nc2c(c(=O)n1-c1ccc(-c3ccns3)cc1)C[C@@H](C)N(C(=O)c1ccc(Cl)c(Cl)c1)C2 [Compound C212, (6R)-7-(3,4-dichlorobenzoyl)-6-methyl-2-[(propan-2-yl)amino]-3-[4-(1,2-thiazol-5-yl)phenyl]-5,6,7,8-tetrahydropyrido[3,4-d]pyrimidin-4(3H)-one]
CC50 at 3 days (in vitro; [2]): > 50 µM
EC50 [1, 3]: 0.26 µM

C[C@H](Nc1nc2c(c(=O)n1-c1ccc(-n3cccn3)cc1)C[C@@H](C)N(C(=O)c1ccc(Cl)c(Cl)c1)C2)c1ccc(C(F)(F)F)cc1 [Compound C532]
CC50 at 3 days (in vitro; [4]): > 50 µM
EC50 [1, 5]: 0.16 µM

CNC(=O)c1n[nH]c(-n2c(NC(C)C)nc3c(c2=O)C[C@@H](C)N(C(=O)c2ccc(Cl)c(Cl)c2)C3)c1Cl [Compound C692]
CC50 at 3 days (in vitro; [4]): > 50 µM
EC50 [1, 5]: 0.07 µM

COc1ccccc1-n1c(N)nc2c(c1=O)CC(C)N(C(=O)c1ccc(Cl)c(Cl)c1)C2 (centres unmarked) [Compound C95, 2-amino-7-(3,4-dichlorobenzoyl)-3-(2-methoxyphenyl)-6-methyl-5,6,7,8-tetrahydropyrido[3,4-d]pyrimidin-4(3H)-one]
CC50 at 3 days (in vitro; [2]): > 50 µM
EC50 [1, 3]: 1.02 µM

CNC(=O)c1cc(-n2c(N[C@@H](C)c3ccc(C(F)(F)F)cc3)nc3c(c2=O)C[C@@H](C)N(C(=O)c2ccc(Cl)c(Cl)c2)C3)nn1C [Compound C623]
CC50 at 3 days (in vitro; [4]): > 50 µM
EC50 [1, 5]: 0.04 µM

CNC(=O)c1cc(-n2c(NC(C)C)nc3c(c2=O)C[C@@H](C)N(C(=O)c2ccc(Cl)c(C(F)(F)F)c2)C3)[nH]n1 [Compound C687]
CC50 at 3 days (in vitro; [4]): > 50 µM
EC50 [1, 5]: 0.02 µM

COc1ccccc1-n1c(N[C@H](C)C(F)(F)F)nc2c(c1=O)CCN(C(=O)c1ccc(Cl)c(Cl)c1)C2 (single isomer, unassigned) [Compound C101a]
CC50 at 3 days (in vitro; [2]): 36.9 µM
EC50 ([1]; HepG2.117 cells, 3 days of treatment, intracellular HBV DNA by real-time PCR; mean value; read-out: EC50 (μM, mean value)): 22.1 µM

CNC(=O)c1cc(-n2c(NC(C)C)nc3c(c2=O)C[C@@H](C)N(C(=O)c2ccc(Cl)c(C(F)F)c2)C3)n(C)n1 [Compound C672]
CC50 at 3 days (in vitro; [4]): > 50 µM
EC50 [1, 5]: 0.09 µM

CC(C)Nc1nc2c(c(=O)n1-c1ccc(-c3nccn3C)cc1Cl)C[C@@H](C)N(C(=O)c1ccc(Cl)c(Cl)c1)C2 [Compound C313, (6R)-3-[2-chloro-4-(1-methyl-1H-imidazol-2-yl)phenyl]-7-(3,4-dichlorobenzoyl)-6-methyl-2-[(propan-2-yl)amino]-5,6,7,8-tetrahydropyrido[3,4-d]pyrimidin-4(3H)-one]
CC50 at 3 days (in vitro; [2]): 24.4 µM
EC50 [1, 3]: 0.12 µM

CC(C)Nc1nc2c(c(=O)[nH]1)CCN(C(=O)c1ccc(Cl)c(Cl)c1)C2 [Compound C42, 7-(3,4-dichlorobenzoyl)-2-[(propan-2-yl)amino]-5,6,7,8-tetrahydropyrido[3,4-d]pyrimidin-4(3H)-one]
CC50 at 3 days (in vitro; [2]): > 50 µM
EC50 [1, 3]: 2.79 µM

CNC(=O)c1ccc(-n2c(NC(C)c3nccs3)nc3c(c2=O)C[C@@H](C)N(C(=O)c2ccc(Cl)c(Cl)c2)C3)cc1 (some centres unmarked) [Compound C434]
CC50 at 3 days (in vitro; [4]): > 50 µM
EC50 [1, 5]: 0.57 µM

COc1ccccc1-n1c(NCc2nccs2)nc2c(c1=O)CCN(C(=O)c1ccc(Cl)c(Cl)c1)C2 [Compound C13, 7-(3,4-dichlorobenzoyl)-3-(2-methoxyphenyl)-2-{[(1,3-thiazol-2-yl)methyl]amino}-5,6,7,8-tetrahydropyrido[3,4-d]pyrimidin-4(3H)-one]
CC50 at 4 days (in vitro): 38.9 µM
EC50 [1, 3]: 8.75 µM

COc1ccccc1-n1c(NCCO)nc2c(c1=O)CCN(C(=O)c1ccc(Cl)c(Cl)c1)C2 [Compound C37, 7-(3,4-dichlorobenzoyl)-2-[(2-hydroxyethyl)amino]-3-(2-methoxyphenyl)-5,6,7,8-tetrahydropyrido[3,4-d]pyrimidin-4(3H)-one]
CC50 at 3 days (in vitro; [2]): > 50 µM
EC50 [1, 3]: 32.1 µM

CNC(=O)c1ccc(-n2c(NC(C)C)nc3c(c2=O)C[C@@H](C)N(C(=O)c2ccc(Br)c(C)c2)C3)cc1 [Compound C589]
CC50 at 3 days (in vitro; [4]): > 50 µM
EC50 [1, 5]: 0.04 µM

CNC(=O)c1ccc(-n2c(NC(C)C)nc3c(c2=O)C[C@@H](C)N(C(=O)c2cc(Cl)c(Br)cc2OC)C3)cc1 [Compound C521]
CC50 at 3 days (in vitro; [4]): > 50 µM
EC50 [1, 5]: 7.64 µM

CNC(=O)c1ccc(-n2c(O[C@@H](C)C(C)C)nc3c(c2=O)C[C@@H](C)N(C(=O)c2ccc(Cl)c(Cl)c2)C3)cc1 [Compound C446]
CC50 at 3 days (in vitro; [4]): 27.6 µM
EC50 [1, 5]: 0.03 µM

CNC(=O)c1ccc(-n2c(NC(C)C)nc3c(c2=O)C[C@@H](C)N(C(=O)c2cc4c(C)cc(F)cc4[nH]2)C3)cc1 [Compound C564]
CC50 at 3 days (in vitro; [4]): 21.7 µM
EC50 [1, 5]: 0.02 µM

CNC(=O)c1cc(-n2c(N[C@@H](C)c3ccc(C(F)(F)F)cc3)nc3c(c2=O)C[C@@H](C)N(C(=O)c2ccc(Cl)c(Cl)c2)C3)n(C)n1 [Compound C534]
CC50 at 3 days (in vitro; [4]): > 50 µM
EC50 [1, 5]: 0.14 µM

CNC(=O)c1ccc(-n2c(NC(C)C)nc3c(c2=O)C[C@@H](C)N(C(=O)c2cc4c(C)c(F)ccc4[nH]2)C3)cc1 [Compound C570]
CC50 at 3 days (in vitro; [4]): 24.5 µM
EC50 [1, 5]: 0.01 µM

CNC(=O)c1ccc(-n2c(N[C@@H](C)C3CC3)nc3c(c2=O)C[C@@H](C)N(C(=O)c2ccc(Cl)c(Cl)c2)C3)cc1 [Compound C294, 4-[(6R)-2-{[(1S)-1-cyclopropylethyl]amino}-7-(3,4-dichlorobenzoyl)-6-methyl-4-oxo-5,6,7,8-tetrahydropyrido[3,4-d]pyrimidin-3(4H)-yl]-N-methylbenzamide]
CC50 at 3 days (in vitro; [2]): 26.5 µM
EC50 [1, 3]: 0.05 µM
